Reference: the NIST ThermoML archive (doi:10.1021/je7000446)

Assay: relative permittivity at various frequencies (dimensionless)
Conditions: Fluid (supercritical or subcritical phases), Frequency=0.06 MHz, Parallel plate capacitor

CC(F)(F)F [1,1,1-trifluoroethane]
Conditions | relative permittivity
302.8 K, 1600 kPa | 9.28
302.8 K, 4000 kPa | 9.44
302.8 K, 6200 kPa | 9.56
302.8 K, 8200 kPa | 9.67
302.8 K, 10200 kPa | 9.77
302.8 K, 12300 kPa | 9.86
302.8 K, 16200 kPa | 10.02
302.8 K, 18500 kPa | 10.1
302.8 K, 20100 kPa | 10.16
302.8 K, 22000 kPa | 10.24
302.8 K, 24200 kPa | 10.31
302.8 K, 26300 kPa | 10.38
302.8 K, 28300 kPa | 10.44
302.8 K, 30700 kPa | 10.51
313.2 K, 1700 kPa | 8.61
313.2 K, 2700 kPa | 8.69
313.2 K, 4200 kPa | 8.82
313.2 K, 6300 kPa | 8.96
313.2 K, 8000 kPa | 9.05
313.2 K, 8800 kPa | 9.12
313.2 K, 14200 kPa | 9.39
313.2 K, 16300 kPa | 9.49
313.2 K, 18400 kPa | 9.58
313.2 K, 20400 kPa | 9.67
313.2 K, 21800 kPa | 9.73
313.2 K, 24200 kPa | 9.81
313.2 K, 26100 kPa | 9.87
313.2 K, 28400 kPa | 9.9
313.2 K, 30300 kPa | 9.95
313.2 K, 31600 kPa | 9.98
322.8 K, 2400 kPa | 8.08
322.8 K, 4500 kPa | 8.27
322.8 K, 6500 kPa | 8.43
322.8 K, 8400 kPa | 8.56
322.8 K, 10300 kPa | 8.68
322.8 K, 12100 kPa | 8.79
322.8 K, 14300 kPa | 8.89
322.8 K, 16300 kPa | 8.98
322.8 K, 18300 kPa | 9.07
322.8 K, 20200 kPa | 9.16
322.8 K, 22300 kPa | 9.24
322.8 K, 24400 kPa | 9.32
322.8 K, 26200 kPa | 9.38
322.8 K, 27900 kPa | 9.43
322.8 K, 28800 kPa | 9.46
322.8 K, 31000 kPa | 9.49
333 K, 1500 kPa | 7.35
333 K, 2600 kPa | 7.45
333 K, 4400 kPa | 7.66
333 K, 6300 kPa | 7.84
333 K, 8400 kPa | 8.01
333 K, 10300 kPa | 8.14
333 K, 12400 kPa | 8.26
333 K, 14400 kPa | 8.38
333 K, 16300 kPa | 8.48
333 K, 18300 kPa | 8.58
333 K, 20100 kPa | 8.66
333 K, 21100 kPa | 8.7
333 K, 22400 kPa | 8.73
333 K, 24100 kPa | 8.8
333 K, 26000 kPa | 8.87
333 K, 27400 kPa | 8.93
333 K, 29300 kPa | 8.99
343.4 K, 2200 kPa | 6.66
343.4 K, 3000 kPa | 6.79
343.4 K, 4000 kPa | 6.95
343.4 K, 5000 kPa | 7.06
343.4 K, 6200 kPa | 7.2
343.4 K, 8100 kPa | 7.4
343.4 K, 9200 kPa | 7.47
343.4 K, 10400 kPa | 7.58
343.4 K, 12300 kPa | 7.71
343.4 K, 14200 kPa | 7.83
343.4 K, 16200 kPa | 7.94
343.4 K, 18200 kPa | 8.04
343.4 K, 20300 kPa | 8.14
343.4 K, 22200 kPa | 8.22
343.4 K, 24200 kPa | 8.31
343.4 K, 26000 kPa | 8.37
343.4 K, 28000 kPa | 8.45
343.4 K, 29500 kPa | 8.5
353.4 K, 2600 kPa | 6.05
353.4 K, 4600 kPa | 6.39
353.4 K, 6400 kPa | 6.65
353.4 K, 8100 kPa | 6.84
353.4 K, 10000 kPa | 6.99
353.4 K, 12200 kPa | 7.15
353.4 K, 14400 kPa | 7.29
353.4 K, 16400 kPa | 7.41
353.4 K, 18300 kPa | 7.52
353.4 K, 20200 kPa | 7.6
353.4 K, 22200 kPa | 7.7
353.4 K, 24400 kPa | 7.78
353.4 K, 26400 kPa | 7.86
353.4 K, 28600 kPa | 7.95
363.8 K, 3600 kPa | 5.46
363.8 K, 4300 kPa | 5.73
363.8 K, 6100 kPa | 6.09
363.8 K, 8200 kPa | 6.37
363.8 K, 10200 kPa | 6.57
363.8 K, 12200 kPa | 6.74
363.8 K, 14200 kPa | 6.88
363.8 K, 16200 kPa | 7.01
363.8 K, 18200 kPa | 7.12
363.8 K, 20300 kPa | 7.22
363.8 K, 22200 kPa | 7.31
363.8 K, 24300 kPa | 7.41
363.8 K, 26000 kPa | 7.48
363.8 K, 28200 kPa | 7.56
363.8 K, 30000 kPa | 7.63
363.8 K, 31200 kPa | 7.66
372.9 K, 4000 kPa | 4.66
372.9 K, 6300 kPa | 5.55
372.9 K, 8200 kPa | 5.86
372.9 K, 10100 kPa | 6.08
372.9 K, 12200 kPa | 6.27
372.9 K, 14200 kPa | 6.42
372.9 K, 16000 kPa | 6.53
372.9 K, 18000 kPa | 6.65
372.9 K, 20200 kPa | 6.75
372.9 K, 22200 kPa | 6.85
372.9 K, 24200 kPa | 6.94
372.9 K, 26200 kPa | 7.02
372.9 K, 28100 kPa | 7.09
372.9 K, 29800 kPa | 7.15
372.9 K, 30700 kPa | 7.18
383.1 K, 4800 kPa | 3.97
383.1 K, 5800 kPa | 4.7
383.1 K, 6800 kPa | 5.06
383.1 K, 8200 kPa | 5.35
383.1 K, 10400 kPa | 5.65
383.1 K, 12000 kPa | 5.8
383.1 K, 14200 kPa | 6.09
383.1 K, 16200 kPa | 6.24
383.1 K, 18400 kPa | 6.38
383.1 K, 20000 kPa | 6.48

COC(F)(F)C(F)(F)F [methyl pentafluoroethyl ether]
Conditions | relative permittivity
312.9 K, 1500 kPa | 6.94
312.9 K, 3200 kPa | 7
312.9 K, 6100 kPa | 7.08
312.9 K, 8300 kPa | 7.14
312.9 K, 10400 kPa | 7.2
312.9 K, 12500 kPa | 7.25
312.9 K, 14400 kPa | 7.29
312.9 K, 16500 kPa | 7.34
312.9 K, 18300 kPa | 7.37
312.9 K, 26200 kPa | 7.51
312.9 K, 27800 kPa | 7.53
318 K, 1500 kPa | 6.78
318 K, 3200 kPa | 6.85
318 K, 6300 kPa | 6.95
318 K, 8300 kPa | 7.01
318 K, 10400 kPa | 7.06
318 K, 12400 kPa | 7.11
318 K, 14100 kPa | 7.15
318 K, 16400 kPa | 7.19
318 K, 18300 kPa | 7.22
318 K, 20400 kPa | 7.27
318 K, 22200 kPa | 7.29
318 K, 23800 kPa | 7.31
323.4 K, 2000 kPa | 6.65
323.4 K, 3200 kPa | 6.69
323.4 K, 4400 kPa | 6.73
323.4 K, 6600 kPa | 6.79
323.4 K, 8300 kPa | 6.84
323.4 K, 10100 kPa | 6.89
323.4 K, 12200 kPa | 6.94
323.4 K, 14000 kPa | 7
323.4 K, 16000 kPa | 7.05
323.4 K, 18000 kPa | 7.09
323.4 K, 20000 kPa | 7.12
323.4 K, 22200 kPa | 7.16
323.4 K, 24400 kPa | 7.2
323.4 K, 26300 kPa | 7.24
323.4 K, 28400 kPa | 7.27
